PubChem BioAssay (NCI)
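Assay format: 96-well plates, 48-hour exposure. At the TGI there is no net growth.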

Assays:
Assay in all cases: DTP human tumour cell line panel, 48 h
786-0 renal = tested on: 786-0 renal
A498 renal = tested on: A498 renal
A549 NSCLC = tested on: A549 NSCLC
ACHN renal = tested on: ACHN renal
BT-549 breast = tested on: BT-549 breast
CAKI-1 renal = tested on: CAKI-1 renal
CCRF-CEM leukemia = tested on: CCRF-CEM leukemia
COLO 205 colon = tested on: COLO 205 colon
DU-145 prostate = tested on: DU-145 prostate
HCC-2998 colon = tested on: HCC-2998 colon
HCT-116 colon = tested on: HCT-116 colon
HCT-15 colon = tested on: HCT-15 colon
HL-60(TB) leukemia = tested on: HL-60(TB) leukemia
HOP-92 NSCLC = tested on: HOP-92 NSCLC
HS 578T breast = tested on: HS 578T breast
HT29 colon = tested on: HT29 colon
K-562 leukemia = tested on: K-562 leukemia
KM12 colon = tested on: KM12 colon
LOX IMVI melanoma = tested on: LOX IMVI melanoma
M14 melanoma = tested on: M14 melanoma
MCF7 breast = tested on: MCF7 breast
MDA-MB-231 breast = tested on: MDA-MB-231 breast
MDA-MB-435 = tested on: MDA-MB-435
MDA-N = tested on: MDA-N
MOLT-4 leukemia = tested on: MOLT-4 leukemia
NCI-H226 lung = tested on: NCI-H226 lung
NCI-H23 lung = tested on: NCI-H23 lung
NCI-H460 lung = tested on: NCI-H460 lung
NCI/ADR-RES ovarian = tested on: NCI/ADR-RES ovarian
OVCAR-3 ovarian = tested on: OVCAR-3 ovarian
OVCAR-4 ovarian = tested on: OVCAR-4 ovarian
OVCAR-8 ovarian = tested on: OVCAR-8 ovarian
PC-3 prostate = tested on: PC-3 prostate
RPMI-8226 leukemia = tested on: RPMI-8226 leukemia
RXF 393 renal = tested on: RXF 393 renal
SF-268 CNS = tested on: SF-268 CNS
SF-295 CNS = tested on: SF-295 CNS
SF-539 CNS = tested on: SF-539 CNS
SK-MEL-2 melanoma = tested on: SK-MEL-2 melanoma
SK-MEL-28 melanoma = tested on: SK-MEL-28 melanoma
SK-MEL-5 melanoma = tested on: SK-MEL-5 melanoma
SK-OV-3 ovarian = tested on: SK-OV-3 ovarian
SN12C renal = tested on: SN12C renal
SNB-19 CNS = tested on: SNB-19 CNS
SR leukemia = tested on: SR leukemia
SW-620 colon = tested on: SW-620 colon
T-47D breast = tested on: T-47D breast
U251 CNS = tested on: U251 CNS
UACC-257 melanoma = tested on: UACC-257 melanoma
UACC-62 melanoma = tested on: UACC-62 melanoma
UO-31 renal = tested on: UO-31 renal
EKVX NSCLC = tested on: EKVX NSCLC
HOP-62 NSCLC = tested on: HOP-62 NSCLC
IGROV1 ovarian = tested on: IGROV1 ovarian
MALME-3M melanoma = tested on: MALME-3M melanoma
NCI-H522 lung = tested on: NCI-H522 lung
OVCAR-5 ovarian = tested on: OVCAR-5 ovarian
SNB-75 CNS = tested on: SNB-75 CNS
TK-10 renal = tested on: TK-10 renal

Measured: TGI

Cc1ccc(NC(=O)/C(Cc2cc(=O)oc3cc(O)ccc23)=N\NC(C)(C)C)cc1C
not listed: EKVX NSCLC | HOP-62 NSCLC | IGROV1 ovarian | MALME-3M melanoma | NCI-H522 lung | OVCAR-5 ovarian | SNB-75 CNS | TK-10 renal
> 100 µM: all other assays above

Cc1cc2c(c(S(=O)(=O)c3ccccc3[N+](=O)[O-])c1)NCCC2
40.2 µM: T-47D breast
not listed: CAKI-1 renal | CCRF-CEM leukemia | HCT-116 colon | HOP-92 NSCLC | K-562 leukemia | MOLT-4 leukemia | UACC-257 melanoma
> 100 µM: all other assays above
